This note sets out measurements from US9067949B2, “Benzofuro[3,2-c] pyridines and related analogs as serotonin sub-type 6 (5-HT6) modulators for the treatment of obesity, metabolic syndrome, cognition and schizophrenia” (Albany Molecular Research, Inc., priority 2011, dated 2015).

Where two headings read alike, the source gives them in different places.

Series [1] concerns the target T1, human 5-HT6 receptor (Homo sapiens (Human), UniProt P50406). The series can be described thus: 5-HT6 radioligand binding assay (SPA format, [N-methyl-3H]-LSD). Conditions: human 5-HT6 receptor membranes, 10 nM [N-methyl-3H]-LSD, Ki by Cheng-Prusoff, read-out: human 5HT6 Ki. An outline of the steps:
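Human 5-HT6 receptor membranes were incubated overnight at room temperature with 10 nM [N-methyl-3H]-LSD and competitor in 50 mM Tris-HCl pH 7.5, 5 mM MgCl2, 1 mM EDTA, 4% DMSO, read by SPA. Nonspecific binding was defined with 100 μM 5-HT. IC50 came from ten-point duplicate curves; Ki via Cheng-Prusoff.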

Series [2] addresses T1, human 5-HT6 receptor. Description: Cell-based functional assay measuring cAMP production (HTRF). Conditions: for Emax: agonist mode, relative to 10 μM 5-HT Emax control, read-out: Emax (agonism); for functional activity at the human 5HT6 receptor: cell based assay. The procedure: Compounds were further diluted to 4× assay concentrations with serum free media containing IBMX. […] Cells were lysed by addition of HTRFTM reagents (CisBio International) and after another 30 minute incubation, the plates were read on an AnalystGT (MDS) or SynergyHT (BioTek) microplate reader. […] Antagonist activity was expressed as the ratio of cAMP produced in a test well to the average cAMP produced in the EC80 challenge control wells. Agonist activity was determined after a full 30 minutes of incubation at room temperature, using 10 μM 5-HT as the Emax control. Cells were lysed by addition of HTRFTM reagents (CisBio International) and after another 30 minute incubation, the plates were read on an AnalystGT (MDS) or SynergyHT (BioTek) microplate reader. […] Agonist activity was expressed as the ratio of cAMP produced in a test well to the average cAMP produced in the Emax control wells. All cell-based experiments were performed in duplicate using ten concentrations of test compound with 5-HT (agonist mode) or a known antagonist (antagonist mode) included as additional controls in every run. […] For antagonists, the apparent dissociation constant (Kb) was calculated using a modified Cheng-Prusoff equation: Kb=IC50/([…][…])), where A=concentration of reference agonist in the assay and E[…]=EC50 value of the reference agonist.
A general note: cAMP levels reflect the balance of adenylyl cyclase and phosphodiesterase activity.

T1 sequence (P50406 whole entry): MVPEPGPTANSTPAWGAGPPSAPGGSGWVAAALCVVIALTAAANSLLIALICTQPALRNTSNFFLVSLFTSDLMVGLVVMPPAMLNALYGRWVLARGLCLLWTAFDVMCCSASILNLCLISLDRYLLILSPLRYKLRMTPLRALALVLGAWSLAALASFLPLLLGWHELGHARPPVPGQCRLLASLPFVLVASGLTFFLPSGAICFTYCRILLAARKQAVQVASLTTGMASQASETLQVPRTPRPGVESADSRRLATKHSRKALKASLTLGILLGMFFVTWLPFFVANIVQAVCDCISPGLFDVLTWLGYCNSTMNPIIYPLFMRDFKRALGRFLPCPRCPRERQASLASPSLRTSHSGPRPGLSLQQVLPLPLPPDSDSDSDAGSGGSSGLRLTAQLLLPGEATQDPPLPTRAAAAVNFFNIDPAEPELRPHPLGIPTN

Turning to `Cl.O=S(=O)(c1cccc(C(F)(F)F)c1)c1ccc2c3c(oc2c1)CC1CCC3N1` (centres unmarked) [Example 64, 3-(3-Trifluoromethylphenyl)sulfonyl-6,7,8,9,10-pentahydro-7,10-epiminocyclohepta[b]benzofuran hydrochloride], the melting point – broadly, the temperature of the solid-liquid transition – is 178 to 183 °C. Moreover, the Ki – broadly, the dissociation constant of the complex between target and ligand, obtained from inhibition or displacement – at human 5-HT6 receptor [1] turned out to be 116 nM.
The like results for `Cl.O=S(=O)(c1cccc(Cl)c1)c1ccc2c3c(oc2c1)CC1CCC3N1` (centres unmarked) [Example 65, 3-(3-Chlorophenyl)sulfonyl-6,7,8,9,10-pentahydro-7,10-epiminocyclohepta[b]benzofuran hydrochloride] were, in that order, 193 to 197 °C and 154 nM.
For the compound `Cl.O=S(=O)(c1ccc2c3c(oc2c1)CC1CCC3N1)n1ccc2ccccc21` (centres unmarked) [Example 67, 3-(1H-indol-1-yl)sulfonyl-6,7,8,9,10-pentahydro-7,10-epiminocyclohepta[b]benzofuran hydrochloride], the melting point lay within 192 to 196 °C. Also, at human 5-HT6 receptor [1], the inhibition constant (Ki) worked out at 34 nM.
The like results for `Cl.O=S(=O)(c1ccccc1)c1ccc2c3c(oc2c1)CCCNC3` [Example 68, 8-(Phenylsulfonyl)-2,3,4,5-tetrahydro-1H-benzofuro[3,2-c]azepine hydrochloride] were, in that order, 221 to 225 °C and 132 nM.
`Cl.O=S(=O)(c1ccccc1)c1ccc2oc3c(c2c1)CNCCC3` [Example 69, 9-(Phenylsulfonyl)-2,3,4,5-tetrahydro-1H-benzofuro[3,2-c]azepine hydrochloride] registered a melting point of 211 to 216 °C. Moreover, the Ki at human 5-HT6 receptor [1] was 571 nM.
For `Cl.O=S(=O)(c1ccccc1)c1cc(Cn2cccn2)c2oc3c(c2c1)CNCC3` [Example 75, 6-((1H-pyrazol-1-yl)methyl)-8-(phenylsulfonyl)-1,2,3,4-tetrahydrobenzofuro[3,2-c]pyridine hydrochloride], the melting point was 145 to 148 °C. Moreover, the inhibitory constant (Ki) on human 5-HT6 receptor [1] amounted to 124 nM.
For the compound `Cl.O=S(=O)(c1ccccc1)c1cc(CCO)c2oc3c(c2c1)CNCC3` [Example 79, 2-(8-(phenylsulfonyl)-1,2,3,4-tetrahydrobenzofuro[3,2-c]pyridin-6-yl)ethanol hydrochloride], the melting point lay within 239 to 240 °C. Also, the inhibition constant (Ki) on human 5-HT6 receptor [1] stood at 4.3 nM.
In the same order, the values of `CC(O)Cc1cc(S(=O)(=O)c2ccccc2)cc2c3c(oc12)CCNC3.Cl` (centres unmarked) [Example 80, 1-(8-(phenylsulfonyl)-1,2,3,4-tetrahydrobenzofuro[3,2-c]pyridin-6-yl)propan-2-ol hydrochloride] are 283 to 284 °C and 19 nM.
As to `CC1(C)NCCc2oc3c(Cl)cc(S(=O)(=O)c4ccccc4)cc3c21.Cl` [Example 84, 6-chloro-1,1-dimethyl-8-(phenylsulfonyl)-1,2,3,4-tetrahydrobenzofuro[3,2-c]pyridine hydrochloride], the melting point is 282 to 287 °C (dec.). Besides, at human 5-HT6 receptor [1], the Ki was 27 nM.
The compound `Cl.O=S(=O)(c1ccccc1)c1cc(Cl)c2oc3c(c2c1)C(CO)NCC3` (centres unmarked) [Example 85, (6-chloro-8-(phenylsulfonyl)-1,2,3,4-tetrahydrobenzofuro[3,2-c]pyridin-1-yl)methanol hydrochloride] returned a melting point of 185 to 187 °C. Also, the Ki on human 5-HT6 receptor [1] came out at 1.6 nM.
In the same order, the values of `CC1CNCc2c1oc1c(Cl)cc(S(=O)(=O)c3ccccc3)cc21.Cl` (centres unmarked) [Example 89, 6-chloro-4-methyl-8-(phenylsulfonyl)-1,2,3,4-tetrahydrobenzofuro[3,2-c]pyridine hydrochloride] are 291 to 292 °C (dec.) and 110 nM.
The like results for `Cl.Clc1cc(Sc2ccccc2)cc2c3c(oc12)CCNC3` [Example 91, 6-chloro-8-(phenylthio)-1,2,3,4-tetrahydrobenzofuro[3,2-c]pyridine hydrochloride] were, in that order, 241 to 248 °C (dec.) and 12 nM.
As for `Cl.[O-][S+](c1ccccc1)c1cc(Cl)c2oc3c(c2c1)CNCC3` (centres unmarked) [Example 93, 6-chloro-8-(phenylsulfinyl)-1,2,3,4-tetrahydrobenzofuro[3,2-c]pyridine hydrochloride], the melting point was 264 to 272 °C (dec.). Further, the inhibitory constant (Ki) on human 5-HT6 receptor [1] (hydrochloride) was 10 nM.
For `Cl.OC(c1ccccc1)c1cc(Cl)c2oc3c(c2c1)CNCC3` (centres unmarked) [Example 94, (6-chloro-1,2,3,4-tetrahydrobenzofuro[3,2-c]pyridin-8-yl)(phenyl)methanol hydrochloride], the melting point was 260 °C (dec.). Moreover, the Ki on human 5-HT6 receptor [1] stood at 143 nM.
The like results for `CC(c1ccccc1)c1cc(Cl)c2oc3c(c2c1)CNCC3.Cl` (centres unmarked) [Example 95, 6-chloro-8-(1-phenylethyl)-1,2,3,4-tetrahydrobenzofuro[3,2-c]pyridine hydrochloride] were, in that order, 245 to 255 °C (dec.) and 7.5 nM.
In the same order, the values of `COc1cc(Cc2ccccc2)cc2c3c(oc12)CCNC3.Cl` [Example 96, 8-benzyl-6-methoxy-1,2,3,4-tetrahydrobenzofuro[3,2-c]pyridine hydrochloride] are 263 to 265 °C and 4.9 nM.
Take `Cl.O=S(=O)(c1ccc(C(F)(F)F)cc1)c1cc(Cl)c2oc3c(c2c1)CNCC3` [Example 111]: the Ki at human 5-HT6 receptor [1] was 3.3 nM. Besides, on human 5-HT6 receptor [2], the Emax (in general, the size of the effect at its maximum, as opposed to the concentration needed) was determined as 27% and the “functional activity at the human 5HT6 receptor” value was “weak partial agonists”.
In the same order, the values of `Cl.O=S(=O)(c1ccc(OC(F)(F)F)cc1)c1cc(Cl)c2oc3c(c2c1)CNCC3` [Example 112] are 4.9 nM, 19% and “weak partial agonists”.
